Source: patent US20250114386A1, “COMBINATION OF A GLYCOSYLATION INHIBITOR WITH ONE CAR CELL THERAPY FOR TREATING CANCER” (OSPEDALE SAN RAFFAELE S.R.L., priority 2018, published 2025)
“Also recorded” adds a separate entry of the source.

Legend:
[1] = system: T3M4 pancreatic tumour cells; experiment: PHA-L staining of surface N-glycosylation after 2DG treatment; assay type: cell-based
Protocol: (§1) For dose assessment, tumour cells were exposed to 2, 4, 8, 16 or 64 mM 2DG (D8375, Sigma-Aldrich) and, after 48 h, absolute cell numbers and percentages of necrotic and proliferating cells were determined by FACS using Flow-Count Fluorospheres (BeckmanCoulter), 7-AAD and CFSE, respectively. For pharmacokinetic studies, tumour cells were treated with 4 mM 2DG and surface N-glycosylation was assessed by PHA-L staining at different time points from treatment or from wash-out to assess the kinetic of de-glycosylation and glycosylation, respectively. For safety studies, buffy coat cells were treated with 4 mM 2DG for 18 hours in the presence of IL-2 (100 IU/mL; Chiron), IL-21 (10 ng/ml; Peprotech) and IL-15 (5 ng/mL; Peprotech) before assessment of the glyco-phenotype by PHA-L staining and of cell viability by 7aad/AnnexinV staining.
(§2) The inventors used mAbs specific for human CD44v6 (e-Bioscience), CD3, CD45, NGFR, LAG3 (BD Bioscience), HLA-DR, PD1, TIM3, (Biolegend), CD57 (Miltenyi Biotec). To determine cell vitality, 7-Aminoactinomicin D (7-AAD), AnnexinV or DAPI reagents were used. For LV transduced tumour cells, GFP expression was analysed by direct fluorescence. Samples were run through a fluorescence-activated cell sorting (FACS) Canto flow cytometer (BD Biosciences) and data were analysed with the FlowJo software (Tree Star, Inc.). For branched N-glycans expression analysis, cells were incubated with biotinylated Phaseolus vulgaris Leukoagglutinin (PHA-L; Caderlane) for 1 hour according to manufacturer's instructions, washed and incubated with PE-conjugated streptavidin and analysed by flow cytometry.

[2] = system: T3M4 pancreatic tumour cells; experiment: Western blot / biotin-enrichment assay of protein de-glycosylation; assay type: cell-based
Protocol: […] De-glycosylation was assessed as molecular weight shift. For selective cell membrane protein analysis, biotinilation assay was performed according to manufacturer instructions (Thermo Scientific). Treatment of cell lysates with PNGase F (NEB, P0704) was performed as recommended by the manufacturer's instructions.

[3] = system: T3M4 pancreatic tumour cells; experiment: Lactate production assay (glycolysis); assay type: cell-based; conditions: low doses of 2DG, 48 h
Protocol: Lactate production was assessed after 48 hours of 2DG treatment at the doses of 2, 4, 8, 16 or 64 mM 2DG using the Lactate-Glo assay (Promega) according to the manufacturer's instructions.

[4] = system: T3M4 pancreatic tumour cells; experiment: Tumour cell survival (7-AAD) and proliferation (CFSE) after 2DG; assay type: cell-based; conditions: low doses of 2DG (4 mM, 48 hours)
Protocol: as §1

[5] = system: T3M4 and PT45 pancreatic tumour cells; experiment: In vitro co-culture killing assay with CD44v6 CAR-T cells; assay type: cell-based
Protocol: (§3) CEA or CD44v6 CAR-T cells from healthy donors were co-cultured at 1:5, 1:10, 1:25 E:T ratios with target cells in the absence of IL-7 and IL-15. T cells transduced with an irrelevant CAR (CD19 CAR T) were used as control. After 24 h or 96 h, co-cultures were analysed by FACS using Flow-Count Fluorospheres (BeckmanCoulter) and target cell killing, expressed as Elimination Index, was calculated as follows: 1−(number of residual target cells with experimental CAR-T cells/number of residual target with irrelevant CAR-T cells). In co-culture assays combining CAR-T cells with 2DG, target cells were exposed to 4 mM 2DG for 48 h before being washed, co-cultured with experimental or irrelevant CAR-T cells and analysed as above. In these experiments, the Elimination Index of 2DG alone was calculated as follows: 1−(number of target cells cultivated in medium supplemented with 2DG/number of target cells cultivated in medium alone). Co-culture of Jurkat CAR-TPR and tumour cells was performed at 1:1 E:T ratio. As control, Jurkat CAR-TPR cells were treated with either 50 ng/mL of phorbol myristate acetate (PMA) or 1 g/mL of Ionomycin or a combination of the two. Upregulation of fluorescence was assessed after 24 hours

[6] = system: healthy peripheral blood mononuclear cells (PBMCs); experiment: Safety study on buffy coat cells (PHA-L staining, 7aad/AnnexinV); assay type: cell-based; conditions: 4 mM 2DG, 18 hours
Protocol: as §1

[7] = system: human primary keratinocytes; experiment: Primary keratinocytes: western blot and co-culture with CD44v6 CAR-T cells; assay type: cell-based
Protocol: as §3, with “As control, Jurkat CAR-TPR cells were treated with either 50 ng/mL of phorbol myristate acetate (PMA) or 1 g/mL of Ionomycin or a combination of the two.” left out
Tumour cells or healthy primary keratinocytes were treated with either medium alone or supplemented with 4 mM 2DG for 48 h, lysed and subjected to SDS polyacrylamide gel electrophoresys. De-glycosylation was assessed as molecular weight shift. […]

[8] = system: T3M4 pancreatic adenocarcinoma xenograft; experiment: In vivo efficacy, pancreatic adenocarcinoma xenograft mouse model; parameters: species or system NSG mice
Protocol: All experiments were approved by the Institutional Animal Care and Use Committee (IACUC) of San Raffaele University Hospital and Scientific Institute and by the Italian Governmental Health Institute (Rome, Italy). NSG mice (NOD.Cg-Prkdcscid Il2rgtm1Wj1) were obtained from the Jackson Laboratories and kept in a specific-pathogen-free (SPF) facility within individually ventilated cages. […] At day […] and 7 from tumour engraftment, when the tumour burden was high, mice were injected intraperitoneally (i.p.) with 500 mg/kg 2DG. At day 7 mice were infused intravenously (i.v.) with 5×10^5 of either CD44v6 or CD19 CAR T cells as control. In another set of experiments, mice were treated with 500 mg/kg 2DG at day 2 and 3 and received 10×10^5 of either CD44v6 or CD19 CAR T cells at day 3, when the tumour burden was low. Tumour growth was monitored by bioluminescence assay using the QUANTI-Luc detection reagent (InvivoGen) and expressed as relative light units (RLUs), according to the manufacturer instructions. Mice were sacrificed when RLUs were >10^6.

[9] = system: PT45, BxPC3 and T3M4 pancreatic tumour cells; experiment: In vitro co-culture killing assay with CEA CAR-T cells; assay type: cell-based
Protocol: as §3

[10] = system: 5637, H1975 and PC9 cells; experiment: In vitro co-culture killing assay, other tumour types; assay type: cell-based; conditions: 4 mM 2DG 48 hours before co-culture
Protocol: as §3

[11] = system: T3M4 pancreatic tumour cells; experiment: Surface expression of beta-1 integrin and CD44v6 by FACS; assay type: cell-based; conditions: 4 mM 2DG, 48 hours
Protocol: as §2

[12] = 2DG alone or combined with chemotherapy and radiotherapy; cited from earlier work
[13] = system: sulfation (PAPS formation); conditions: chlorate usually 10-30 mM; cited from earlier work
[14] = T3M4, tunicamycin 100 ng/ml, 48 h

Molecule: O=CC[C@@H](O)[C@H](O)[C@H](O)CO [2DG, 2-Deoxy-D-glucose]
- duration of de-glycosylation after washing out 2DG ([1]; 4 mM 2DG up to 48 hours, then wash-out): 24 h
- inhibition of N-glycosylation (binding to PHA-L) ([1]; 4 mM 2DG, 48 hours): reduced binding to PHA-L
- time at which de-glycosylation is detectable ([1]; 4 mM 2DG, PHA-L staining): ≤ 5 h
- inhibition of N-glycosylation (western blot, beta-1 integrin) ([2]; 2DG 4 mM or 16 mM, 48 hours, total cell lysates): molecular-weight shift of beta-1 integrin
- de-glycosylated forms of beta-1 integrin and CD44v6 among surface proteins ([2]; biotin-enrichment western blot): clearly detected among surface proteins
- inhibition of glycolysis (lactate production) [3]: unable to inhibit glycolysis
- tumour cell proliferation (CFSE dilution) [4]: no impact
- tumour cell viability (7AADpos cells) [4]: no impact on tumour cell viability
- nature of the combined effect of 2DG and CD44v6 CAR-T cells ([5]; PT45 and T3M4): synergic
- individual antitumor activity of 2DG alone ([5]; PT45 and T3M4, 4 mM 2DG 48 h): lacking
- elimination of tumour cells by CD44v6 CAR-T cells after 2DG pre-treatment ([5]; PT45 and T3M4, 4 mM 2DG 48 h before co-culture): significantly increasing their elimination
- PBMCs glycosylation (PHA-L staining) [6]: failed to interfere with PBMCs glycosylation
- viability of CD3+ T cells, CD19+ B cells, CD14+ monocytes and CD15+ granulocytes [6]: did not impact on the viability
- increase of keratinocyte elimination by CD44v6 CAR-T cells ([7]; 2DG 48 hours before co-culture): failed
- keratinocyte glycosylation ([7]; 2DG 48 hours, same dose as for tumour cells): failed to inhibit keratinocyte glycosylation
- frequency of tumour-infiltrating CD44v6 CAR-T cells expressing exhaustion and senescence markers ([8]; at sacrifice, mice that received 2DG vs not): significantly lower frequency of cells expressing exhaustion and senescence markers
- antitumor effect of 2DG alone ([8]; high tumor burden): unable to mediate any antitumor effect alone
- less tumor with 2DG in mice receiving CAR-T cells ([8]; high tumor burden, at 7d, p<0,05): 5 fold
- antitumor benefit of 2DG in mice receiving CD44v6 CAR-T cells ([8]; high tumour burden (HTB) setting, 500 mg/kg 2DG i.p., low CAR-T cell dose): significantly benefited from 2DG administration
- cytokine release (IFNγ) by CEA CAR-T cells with 2DG-treated tumour cells ([9]; 24 hours after stimulation): increased
- recognition of CEAneg tumour cells by CEA CAR-T cells after 2DG pre-treatment ([9]; CEAneg PT45, 4 mM 2DG 48 hours): did not increase recognition
- elimination of CEApos tumour cells by CEA CAR-T cells after 2DG pre-treatment ([9]; CEApos BxPC3 and T3M4, 4 mM 2DG 48 hours): significantly improved the elimination
- CEA CAR-T cell activation (CD69, Jurkat TPR) with 2DG-treated tumour cells ([9]; T3M4, 4 mM 2DG): increased CAR-T cell activation
- elimination of highly glycosylated tumours by CD44v6 CAR-T cells after 2DG [10]: drastically increase the elimination
- surface expression levels of beta-1 integrin and CD44v6 [11]: maintained
- safety and tolerability in patients [12]: safe and well tolerated; also recorded: good tolerability

Molecule: [O-][Cl+2]([O-])O [chlorate]
- inhibition of sulfation [13]: > 90%

Molecule: tunicamycin
- CD44v6 CAR-T cell activation (CD69) after tunicamycin treatment of tumour cells [5, 14]: confirmed
- elimination of tumour cells by CD44v6 CAR-T cells after tunicamycin treatment [5, 14]: confirmed
